Results taken from paper PMC4907197 (Applied and Environmental Microbiology, 2016).

Assays:
[1] = biological target: T1, KES23458 (Pseudomonas sp. AAC, UniProt Z9SKW1E3X5); test: X-ray crystallography; mass spectrometry; type: binding; details: crystal density atypical of PLP (PLP'), no aldimine seen; MS shows aldimine-bound unmodified PLP; covalent (Lys288 presumed); native structure 1.24 Å
T1 construct: full length minus N-terminal Met by mass spectrometry; homodimer; phospho-His31 and phospho-His360 observed; deconvoluted MS peak 50,399 (reduced with PLP)
T1 sequence (Z9SKW1E3X5 22-468): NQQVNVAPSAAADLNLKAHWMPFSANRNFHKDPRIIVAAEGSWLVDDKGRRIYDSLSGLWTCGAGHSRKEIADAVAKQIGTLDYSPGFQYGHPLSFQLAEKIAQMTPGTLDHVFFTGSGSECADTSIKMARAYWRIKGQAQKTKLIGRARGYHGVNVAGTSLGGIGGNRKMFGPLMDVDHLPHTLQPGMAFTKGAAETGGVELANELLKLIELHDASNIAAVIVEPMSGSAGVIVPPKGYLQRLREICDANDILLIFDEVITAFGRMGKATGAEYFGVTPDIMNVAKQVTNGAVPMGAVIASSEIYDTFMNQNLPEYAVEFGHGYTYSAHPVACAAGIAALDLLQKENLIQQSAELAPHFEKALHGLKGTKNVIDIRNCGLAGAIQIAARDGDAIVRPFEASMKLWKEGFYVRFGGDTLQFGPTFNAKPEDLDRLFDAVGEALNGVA

[2] = biological target: T2, KES23460 (Pseudomonas sp. AAC, UniProt A0ABD3YRH9); test: KES23458-coupled NADH formation, A340; type: biochemical; details: NAD, pH […]
T2 construct: gene FG99_15390
T2 sequence (A0ABD3YRH9 1-498): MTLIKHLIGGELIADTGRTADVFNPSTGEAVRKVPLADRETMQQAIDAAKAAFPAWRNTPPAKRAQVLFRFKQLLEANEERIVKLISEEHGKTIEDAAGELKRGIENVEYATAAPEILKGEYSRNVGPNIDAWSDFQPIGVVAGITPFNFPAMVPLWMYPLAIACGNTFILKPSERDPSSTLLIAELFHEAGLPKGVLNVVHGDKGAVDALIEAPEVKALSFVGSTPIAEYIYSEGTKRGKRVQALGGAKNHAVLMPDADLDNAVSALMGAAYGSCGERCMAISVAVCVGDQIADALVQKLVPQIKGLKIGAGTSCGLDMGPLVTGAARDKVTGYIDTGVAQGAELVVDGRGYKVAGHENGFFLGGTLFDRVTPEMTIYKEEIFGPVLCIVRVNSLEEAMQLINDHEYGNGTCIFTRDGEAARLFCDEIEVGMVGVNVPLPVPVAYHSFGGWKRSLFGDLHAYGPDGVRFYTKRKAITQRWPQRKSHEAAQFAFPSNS

SMILES: Cc1ncc(COP(=O)(O)O)c(C=O)c1O [PLP]
- X-ray crystallography; mass spectrometry [1]: with the mass gain corresponding to aldimine-bound unmodified PLP

SMILES: CC(C)(COP(=O)(O)OP(=O)(O)OC[C@H]1O[C@@H](n2cnc3c(N)ncnc32)[C@H](O)[C@@H]1OP(=O)(O)O)[C@@H](O)C(=O)NCCC(=O)NCCS [CoA]
- KES23458-coupled NADH formation, A340 ([2]; co-substrate malonate semialdehyde formed in situ): In the presence of CoA, the transthioesterification step was observed to be significantly faster

SMILES: O=CCC(=O)O [malonic acid semialdehyde]
- KES23458-coupled NADH formation, A340 ([2]; formed in situ from […] beta-alanine and pyruvate by KES23458, with or without CoA): significant activity with only one of the substrates tested, malonic acid semialdehyde
